Measurements taken from publication PMC10482825 (Scientific Reports, 2023).
Converted amounts (≈) assume the structure as drawn. Where a SMILES comes first, the peptide text is derived from it.

Tests used:
[1] = tested on: P. aeruginosa; format: cell-based, Pseudomonas aeruginosa (ATCC, 10145); settings: 20 µl of wells without growth on agar, 18 h, 37 °C
[2] = tested on: S. enterica; format: cell-based, Salmonella enterica (ATCC, 14028); settings: 20 µl of wells without growth on agar, 18 h, 37 °C
[3] = tested on: S. enterica; format: cell-based, Salmonella enterica (ATCC, 14028); settings: micro-broth dilution, 3 h peptide treatment then MHB 18 h, 37 °C, OD 600 nm
Excerpt: (§1) The microbial strains used in this study were Bacillus subtilis (ATCC, 11774), Candida albicans (TIMM, 1768), Enterococcus faecalis (ATCC, 33186), Escherichia coli (ATCC, 11775), Klebsiella pneumoniae (ATCC, 13883), Methicillin-resistant Staphylococcus aureus (ATCC, BAA-41), Pseudomonas aeruginosa (ATCC, 10145), Salmonella enterica (ATCC, 14028), Serratia marcescens (ATCC, 13880), Staphylococcus aureus (ATCC, 25923) and Vibrio parahaemolyticus (ATCC, 17802). All microbial strains were cultivated overnight at 37 °C and 200 rpm, then subcultured and incubated for 3 h under the same incubation conditions to obtain the mid-logarithmic growth phase. The cultivated cells were washed twice with 10 mM Tris–HCl containing 5 mM D-glucose at pH 7.4 and suspended in the same buffer to be used in different assays, as previously described.
(§2) As a conclusive quantitative assessment, broth microtiter assay was used to determine the MIC values of each cryptide against B. subtilis, MRSA, S. enterica, P. aeruginosa, V. parahaemolyticus and C. albicans by following the guidelines of the Clinical and Laboratory Standards Institute (CLSI)[67], with slight modifications. Eighty microliters of 5 × 10^4 CFU/ml of each pathogen were dispensed into a 96-well polypropylene microtiter plate. The wells were then treated with 20 µl of serially diluted cryptides for 3 h at 37 °C. Gentamicin was used for positive controls at 0.2 mg/ml while an equivalent volume of acidified water was used for negative controls. The plates were then topped up with a final concentration of 1 × Mueller Hinton Broth (MHB) and incubated for 18 h under the same incubation conditions. MIC was detected as the lowest concentration of each cryptide that prevents the optically detectable microbial growth at OD = 600 nm.

[4] = format: cell-based; settings: 24 h, serum-free medium, MTT, 37 °C, 5% CO2; mean ± SD; read-out: IC50 (µM) A459
Description: (§3) The used mammalian cell lines in our study were colorectal adenocarcinoma (Caco2, ATCC-HTB-37), colorectal carcinoma (HCT 116, ATCC-CCL-247), lung carcinoma (A549, ATCC- CCL-185), cervical cancer cells (HeLa, ATCC-CCL-2), neuroblastoma (SH-SY5Y, ATCC- CRL-2266), rhabdomyosarcoma (RD, ATCC- CCL-136) and human embryonic kidney cells (HEK 293, ATCC- CRL-1573). All the cells were maintained into Dulbecco’s Modified Eagle’s Medium (DMEM) supplemented with 10% heat-inactivated fetal bovine serum, 2 mM L-Glutamine, 100 U/ml penicillin–streptomycin (Pen/Strep) at 37 °C in 5% CO2 humidified incubator.
(§4) First, the cytotoxic effect of 24 h serum deprivation on all the selected cell lines was evaluated by MTT assay, following standard protocols. Briefly, cells were seeded and maintained at 37 °C and 5% CO2 in 24-well plates until they reached 75–80% confluency (zero time). Following washing twice with 1X PBS, cells were incubated in a serum-free medium for 24 h, under the same incubation conditions. The cell viability percentages were calculated and compared to zero time as 100% viability to nullify any possible effects of serum deprivation. Thence, the cell viability percentage of each cell line in response to 24 h treatment with different concentrations of each cryptide in serum-free medium was calculated. […] All the measured cell viability percentages were normalised against the corresponding negative controls.

[5] = tested on: RD; format: cell-based; settings: 24 h, serum-free medium, MTT, 37 °C, 5% CO2; mean ± SD
Description: as §3, §4

[6] = tested on: C. albicans; format: cell-based, Candida albicans (TIMM, 1768); settings: 20 µl of wells without growth on Sabouraud 4% Dextrose Agar, 18 h, 37 °C
[7] = tested on: MRSA; format: cell-based, Methicillin-resistant Staphylococcus aureus (ATCC, BAA-41); settings: micro-broth dilution, 3 h peptide treatment then MHB 18 h, 37 °C, OD 600 nm
Excerpt: as §1, §2

[8] = tested on: Caco-2; format: cell-based, human; settings: 24 h, serum-free medium, MTT, 37 °C, 5% CO2; mean ± SD
Description: as §3, §4

[9] = tested on: HeLa; format: cell-based, human; settings: 24 h, serum-free medium, MTT, 37 °C, 5% CO2; mean ± SD
Description: as §3, §4

[10] = tested on: B. subtilis; format: cell-based, Bacillus subtilis (ATCC, 11774); settings: micro-broth dilution, 3 h peptide treatment then MHB 18 h, 37 °C, OD 600 nm
Excerpt: as §1, §2

[11] = tested on: C. albicans; format: cell-based, Candida albicans (TIMM, 1768); settings: micro-broth dilution, 3 h peptide treatment then MHB 18 h, 37 °C, OD 600 nm
Excerpt: as §1, §2

[12] = tested on: P. aeruginosa; format: cell-based, Pseudomonas aeruginosa (ATCC, 10145); settings: micro-broth dilution, 3 h peptide treatment then MHB 18 h, 37 °C, OD 600 nm
Excerpt: as §1, §2

[13] = tested on: B. subtilis; format: cell-based, Bacillus subtilis (ATCC, 11774); settings: 20 µl of wells without growth on agar, 18 h, 37 °C
[14] = tested on: MRSA; format: cell-based, Methicillin-resistant Staphylococcus aureus (ATCC, BAA-41); settings: 20 µl of wells without growth on agar, 18 h, 37 °C

Row | Molecule | MBC (µM) P. aeruginosa [1] | MBC (µM) S. enterica [2] | MIC (µM) S. enterica [3] | IC50 [4] | IC50 [5] | MFC (µM) C. albicans [6] | MIC (µM) MRSA [7] | IC50 [8] | IC50 [9] | MIC (µM) B. subtilis [10] | MIC (µM) C. albicans [11] | MIC (µM) P. aeruginosa [12] | MBC (µM) B. subtilis [13] | MBC (µM) MRSA [14]
1 | CC(C)C[C@H](NC(=O)[C@H](CCCNC(=N)N)NC(=O)[C@H](Cc1c[nH]c2ccccc12)NC(=O)[C@H](CCCNC(=N)N)NC(=O)[C@H](CC(C)C)NC(=O)[C@@H](N)Cc1ccccc1)C(=O)N[C@@H](CCCCN)C(=O)N[C@@H](Cc1ccccc1)C(=O)N[C@@H](CCCCN)C(=O)N[C@@H](CO)C(=O)N[C@@H](CCCCN)C(=O)N[C@H](C(=O)N[C@@H](Cc1c[nH]c2ccccc12)C(=O)N[C@@H](CS)C(=O)N1CCC[C@H]1C(=O)O)C(C)C [AD7] (H-FLRWRLKFKSKVWCP-OH) | 25 µM (≈ 49.9 µg/mL) | 0.78 µM (≈ 1.56 µg/mL) | 0.78 µM (≈ 1.56 µg/mL) | 8.5 ± 0.6 µM | 97.8 ± 0.2 µM | 6.25 µM (≈ 12.5 µg/mL) | 3.12 µM (≈ 6.22 µg/mL) | 11.2 ± 0.7 µM | 101.5 ± 0.9 µM | 0.39 µM (≈ 0.778 µg/mL) | 1.56 µM (≈ 3.11 µg/mL) | 6.25 µM (≈ 12.5 µg/mL) | 0.39 µM (≈ 0.778 µg/mL) | 3.12 µM (≈ 6.22 µg/mL)
2 | CSCC[C@H](NC(=O)[C@H](CCCCN)NC(=O)CNC(=O)[C@H](CCCCN)NC(=O)[C@H](Cc1ccc(O)cc1)NC(=O)[C@H](CC(N)=O)NC(=O)[C@H](CC(C)C)NC(=O)[C@H](CCC(N)=O)NC(=O)[C@H](CC(C)C)NC(=O)[C@@H](N)CCCNC(=N)N)C(=O)N[C@@H](Cc1c[nH]c2ccccc12)C(=O)N[C@@H](CS)C(=O)N1CCC[C@H]1C(=O)NCC(=O)N[C@@H](Cc1c[nH]c2ccccc12)C(=O)O [AD11] (H-RLQLNYKGKMWCPGW-OH) | > 50 µM | 1.56 µM (≈ 2.93 µg/mL) | 1.56 µM (≈ 2.93 µg/mL) | 11.1 ± 0.7 µM | 19.2 ± 0.9 µM | 25 µM (≈ 47 µg/mL) | 6.25 µM (≈ 11.8 µg/mL) | 26.8 ± 0.4 µM | 16.8 ± 0.6 µM | 0.78 µM (≈ 1.47 µg/mL) | 25 µM (≈ 47 µg/mL) | 25 µM (≈ 47 µg/mL) | 0.78 µM (≈ 1.47 µg/mL) | 12.5 µM (≈ 23.5 µg/mL)
3 | RHCLRSKRPPNVCPH [AD4, cationic cryptide from P. vannamei precursor DN34505 (Pl-crustin 2), chemically synthesised] | > 50 µM | 3.12 µM | 3.12 µM | 8.8 ± 1.1 µM | 15 ± 0.8 µM | 25 µM | 6.25 µM | 5.4 ± 0.7 µM | 10.8 ± 0.3 µM | 1.56 µM | 25 µM | > 50 µM | 1.56 µM | 12.5 µM
